Where two headings read alike, the source gives them in different places.
Legend:
SesnTKO HEK293T cells = assay: mTORC1 activation (p70S6K1) in HEK293T cells null for all three Sestrin isoforms; format: cell-based; conditions: leucine-starved 50 minutes, treatment 10 minutes
Protocol: (§1) All cell lines were cultured in DMEM (Corning, #MT10013CV) supplemented with 10% heat-inactivated FBS (Gibco, #16140–071). All cell lines were maintained at 37°C and 5% CO2. For amino acid starvation, cells were rinsed once with and incubated Amino acid-free RPMI (US Biologicals, #R8999-04A) supplemented with 10% dialyzed FBS (Gibco, #26400044) for 50 min followed by treatment with NV-5297, leucine, or vehicle for 10 minutes. For leucine starvation, cells were rinsed once with and incubated in leucine-free DMEM (AthenaES, #0420) supplemented with 10% dialyzed FBS (Gibco, #26400044) for 50 minuted followed by treatment with NV-5297, leucine, or vehicle for 10 minutes.
(§2) To ascertain if Sestrins and the GATOR pathway are required for NV-5297 activity, we tested mTORC1 activation in cells null for either all three Sestrin isoforms [SesnTKO] or for the GATOR1 component Npr13 [Npr13KO] [44]. […]
(§3) (A) Activation of the mTORC1 pathway by NV-5297. […] Representative immunoblots of ^T389pS6K1 and quantification of the normalized level of ^T389pS6K1 from 8 independent experiments (F) show TORC1 activity in unedited HEK-293T cells, HEK-293T cells deficient for Sestrin 1 (Sesn1), 2 (Sesn2) and 3 (Sesn3) (D) or HEK-293T cells deficient for the GATOR1 component Nprl3 (E) after 50 minutes leucine starvation followed by the addition of vehicle, NV-5297 or leucine for 10 minutes. […]

[1] = Pharmacokinetic analysis of NV-5297 in mice (i.v. and oral, LC-MS/MS); format: in vivo; conditions: C57BL/6 mice
Protocol: […] Mice were given free access to food and water for both i.v. and orally dosed groups. After dosing, tail-vein blood was collected at the indicated time points into K2EDTA tubes and centrifuged at 2,000g for 5 minutes to collect serum. Levels of NV-5297 were quantified via LC-MS/MS. WinNonlin V 6.2 statistics software (Pharsight Corporation, California, USA) was used to generate pharmacokinetics parameters using non-compartmental model.
PK parameters of NV-5297 after an IV dose at 1 mg/kg
PK parameters Unit Estimate
PK parameters of NV-5297 after an OD dose at 5 mg/kg

mTORC1 = mTORC1 activation (pS6K1 immunoblot) in leucine-starved HEK293T cells; format: cell-based; conditions: HEK293T cells starved of leucine 50 minutes, treatment 10 minutes
Protocol: as §1
as §3, with “NV-5297. […] (B) NV-5297 disrupts Sestrin2/GATOR2 in the in vitro Sesn2/WDR24 protein-protein interaction assay in a dose-dependent manner.” for “NV-5297.”

Npr13KO HEK293T cells = assay: mTORC1 activation (p70S6K1) in HEK293T cells null for GATOR1 component Nprl3; format: cell-based; conditions: leucine-starved 50 minutes, treatment 10 minutes
Protocol: as §1, §2, §3

[2] = molecular target: T1, Sestrin2/GATOR2 interaction (Homo sapiens, UniProt P58004); assay: Intact cells-based Sestrin2/GATOR2 protein-protein interaction assay, Flag-WDR24 293T cells; format: cell-based; conditions: 10 minutes
T1 construct: endogenous in cells; host or cells: Flag-WDR24 293T (HEK293T) cells
T1 sequence (P58004 1-480): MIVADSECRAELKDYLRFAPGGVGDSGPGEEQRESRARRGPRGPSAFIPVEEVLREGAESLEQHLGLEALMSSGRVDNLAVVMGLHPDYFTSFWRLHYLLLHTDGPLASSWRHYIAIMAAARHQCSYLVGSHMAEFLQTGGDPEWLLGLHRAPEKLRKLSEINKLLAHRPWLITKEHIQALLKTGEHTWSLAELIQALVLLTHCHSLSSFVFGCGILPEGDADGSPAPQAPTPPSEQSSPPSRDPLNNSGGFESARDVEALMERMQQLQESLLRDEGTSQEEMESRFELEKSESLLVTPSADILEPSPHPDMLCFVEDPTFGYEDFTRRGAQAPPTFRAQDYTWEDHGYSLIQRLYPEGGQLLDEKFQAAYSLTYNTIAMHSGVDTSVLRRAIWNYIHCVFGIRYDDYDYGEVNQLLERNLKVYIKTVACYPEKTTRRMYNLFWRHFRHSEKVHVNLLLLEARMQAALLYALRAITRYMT
Protocol: Flag-WDR24 293T cells were washed and placed in leucine-free DMEM supplemented 10% dFBS for 50 minutes followed by treatment with NV-5297, leucine or vehicle for 10 minutes. Cells were rinsed once with ice-cold PBS and immediately lysed with Triton lysis buffer (1% Triton, 10 mM β-glycerol phosphate, 10 mM pyrophosphate, 40 mM Hepes pH 7.4, 2.5 mM MgCl2 and 1 tablet of EDTA-free protease inhibitor). The cell lysates were cleared by centrifugation at 13,200 rpm at 4°C in a microcentrifuge for 10 minutes. Prior to immunoprecipitations, an aliquot of lysate was taken for SDS-PAGE and immunoblotting for pS6K1, S6K1 and tubulin. For anti-FLAG immunoprecipitations, the FLAG-M2 affinity gel was washed 3 times with Triton lysis buffer, and 30 μl of a 50/50 slurry of the FLAG-M2 affinity gel was then added to approximately 2 mg of clarified cell lysates and incubated with rotation for 3 hours at 4°C. Following immunoprecipitation, the beads were washed one time with Triton wash buffer containing 500 mM NaCl. Immunoprecipitated proteins were denatured, resolved by SDS-PAGE, and analyzed by immunoblotting.
Next, Sestrin2/GATOR2 protein-protein interactions in response to NV-5297 were measured using cell-free assays and in vitro. For this, HEK293T cells stably expressing flag-WDR24, a component of GATOR2 [44], were used. The cell-free assays utilized Sestrin2/GATOR2 complexes immunoprecipitated from amino acid-starved cells with an anti-flag antibody.

[3] = male, mouse, serum, IV dose at 1 mg/kg
[4] = male, mouse, serum, OD (oral) dose at 5 mg/kg

CC(C)(C[C@H](N)C(=O)O)C(F)(F)F [NV-5297, (S)-2-amino-5,5,5-trifluoro-4,4-dimethylpentanoic acid]
p70S6K1 levels (SesnTKO HEK293T cells): remained unchanged | Cmax ([1]; OD (oral) dose at 5 mg/kg): 2893 ng/mL | bioavailability ([1]; male, mouse, serum, po, 160 mg/kg, refers to S1 Table, read-out: oral bioavailability): 100% | half-life ([1]; male, mouse, serum, oral, 160 mg/kg, refers to S1 Table, read-out: half-life (converted)): ~3 h | Tmax ([1]; male, mouse, serum, oral, 160 mg/kg, refers to S1 Table, read-out: time to maximal concentration (tmax) (converted)): 0.5 h | AUC(0-inf) [1, 3]: 1240 ng·h/mL | AUC(0-t) [1, 3]: 1220 ng·h/mL | MRT inf [1, 3]: 1.56 h | clearance [1, 3]: 13.3 mL/min/kg | half-life ([1]; male, mouse, serum, IV dose at 1 mg/kg, read-out: Terminal T1/2 (converted)): 1.45 h | Vd ([1]; male, mouse, serum, IV dose at 1 mg/kg, read-out: Vss): 1.26 L/kg | bioavailability ([1]; male, mouse, serum, OD (oral) dose at 5 mg/kg vs IV 1 mg/kg, read-out: F (bioavailability)): 104% | AUC(0-inf) [1, 4]: 6470 ng·h/mL | AUC(0-t) [1, 4]: 6460 ng·h/mL | half-life ([1]; male, mouse, serum, OD (oral) dose at 5 mg/kg, read-out: Terminal T1/2 (converted)): 2.86 h | Tmax ([1]; male, mouse, serum, OD (oral) dose at 5 mg/kg, read-out: Tmax): 0.5 h | mTORC1 activation measured by phosphorylated S6K1 (pS6K1 / p70S6K1) (mTORC1): activates mTORC1 in leucine-starved HEK293T cells in a dose-dependent manner | p70S6K1 levels (Npr13KO HEK293T cells): remained unchanged | Sestrin2/GATOR2 interaction (GATOR2-associated Sestrin2) ([2]; added to cell cultures, leucine-starved flag-WDR24 HEK293T cells): disrupted the Sestrin2/GATOR2 interaction in a dose-dependent manner | p70S6K1 (T389 pS6K1) level ([2]; leucine-starved flag-WDR24 HEK-293T cells, S1C Fig): increased p70S6K1 in a dose-dependent manner
